Test [1] has as its target T1, PKA (Bos taurus, UniProt P00517). Briefly: AuNPs/Fc-peptide electrochemical. The following applies: thiolated IP20/MCH gold electrode; Fc-peptide 4 µM or AuNPs 2.4 nM.
In test [2] the target is T1, PKA. The following applies: cited from earlier work.
The nature of test [3]: Aggregation of unmodified AuNPs by peptide. The test is classed as physicochemical. The following applies: AuNPs 2.4 nM, IP20 5 µM, PKA (where present) 500 U/mL; UV-Vis, TEM.
Setting [4] is: substrate/ATP, Zr^4+-DNA-AuNPs network, ref [22].
The mark [5] stands for this setting: substrate/ATP, Fe^3+/H2O2, ref [20].
The mark [6] stands for this setting: substrate/ATP-S, AuNPs/MWNTs, ref [30].
The mark [7] stands for this setting: substrate/ATP, Biotinylated antiphosphoserine antibody/SA-AuNPs-HRP, ref [19].

Read-outs that look alike come from different tables or passages of the source.

Turning to FcCH2CO-RTGRRNAIHD [Fc-peptide], the “DPV signal/peak, single component only (Fc-peptide alone or AuNPs alone)” value in test [1] is “no DPV peak was observed”.

Take CLRRASLG: in test [2] (setting [4]), the Detection limit is given as 30 mU/mL and the Linear range was 30–40,000 mU/mL.

With LRRASLGGGGC, in test [2] (setting [5]), the Detection limit is 100 mU/mL and the Linear range is given as 100–50,000 mU/mL.

On to LRRASLG, for which, in test [2] (substrate/biotin-ATP, SA-AuNPs, ref [27]), the Detection limit is 10,000 mU/mL.

Regarding CLRRASIG, in test [2] (setting [6]), the Detection limit was 90 mU/mL and the Linear range is listed as 100–1,000 mU/mL.

As for CGGALRRASLG, the Linear range in test [2] (substrate/ATP, Phos-tag-biotin/avidin-HRP, ref [23]) is recorded as 500–25,000 mU/mL.

As to RTGRRNAIHD, the “effect on AuNPs aggregation / color change” value in test [3] is “responsible for triggering the aggregation of AuNPs”.

Turning to CALRRASLGW, in test [2] (setting [7]), the Detection limit is on record as 1 mU/mL and the Linear range is on record as 1–10 mU/mL.

Consider Fc-LRRASLG, for which, in test [2] (substrate/ATP, bis(Zn^2+-dipicolylamine), ref [21]), the Detection limit is 100 mU/mL.
